The test system of one assay is RLR/MAVS pathway. Description: PolyIC-induced IFN expression in polarized T84 cells, quantitative RT-PCR. The class given is cell-based, human. Conditions: T84 cells pretreated 1 hour with peptide/inhibitor, then PolyIC for 5 hours; FIG. 2. As to the method: FIG. 2 includes graphs showing the inhibitory effects of the novel RLR/MAVS signaling inhibitor. The results are from T84 cells that were treated for 1 hr with the inhibitors shown and then treated with PolyIC (PIC) for 5 hours. Cytokine expression was then assessed by qPCR. The y-axis indicates fold induction over untreated cells (UI).
To determine if the MAVS peptide can block RLR signaling in human cells, experiments were performed in the human intestinal epithelial cell (IEC) line T84 comparing the peptide to a previously characterized antennapedia-peptide that targets the TLR adaptor MyD88. These cells were chosen because it is well-known that many viruses penetrate the intestinal epithelium and it has been shown that they respond naturally to both TLR and RLR ligands (FIG. 2 and data not shown). Polarized T84 cells were pretreated for 1 hour with each peptide and then treated for 5 hours with synthetic viral RNA PolyIC, which activates signaling by […]. […] This inhibitory affect was specific, as the IFN expression was unaffected in cells treated with control peptides.

Assay [1] has as its system antiviral responses in human cells. Description: Blocking of antiviral responses in human cells. It counts as cell-based. Conditions: at micromolar concentrations. An excerpt: Accordingly, described herein is a cell-permeable peptide inhibitor of antiviral pathways that operates in every human cell. It consists of the cell penetrating domain of the Drosophila antennapedia protein and amino acids 50-73 of the human MAVS protein. […]. This peptide represents the first described means of blocking antiviral responses in human cells before or at any time after infection by a virus. Moreover, this molecule can serve as a therapeutic to treat inflammatory autoimmune diseases (e.g., those that are caused by inappropriate activation of antiviral responses). No other method currently exists to accomplish these goals.

With “GNRDTLWHLFNTLQRRPGWVEYFI-RQIKIWFQNRRMKWKK (GNRDTLWHLFNTLQRRPGWVEYFIRQIKIWFQNRRMKWKK) [MAVS peptide, fusion peptide of amino acids 50-73 of MAVS and the cell penetrating domain of the antennapedia protein]”, the “expression of Type I IFN (IFNβ) and Type III IFN IL-29 in response to PolyIC” value in the assay on RLR/MAVS pathway is given as “completely abolished”. In assay [1], the “antiviral responses (expression of Type I and III interferons and interferon stimulated genes, including viperin)” value was “blocks antiviral responses in human cells at micromolar concentrations”.

`CCN(CC)CCCC(C)Nc1ccnc2cc(Cl)ccc12` (stereo not drawn) [chloroquine, reference compound]: the “expression of Type I IFN (IFNβ) and Type III IFN IL-29 in response to PolyIC” value with RLR/MAVS pathway is “neither chloroquine (which blocks TLRs that detect viral RNA) nor inhibitors of the dsRNA dependent kinase PKR, affected”.

Values taken from patent US9650427B2, “Modulators of antiviral signaling pathways and therapeutic uses thereof” (priority 2011, dated 2017).
